Data from patent US8420692B1, “Heterocyclic and carbonate derivatives of NDGA and their use as new anti-HIV and anti-cancer agents” (The Johns Hopkins University, priority 2006, dated 2013).
pIC50: −log10 of the molar value. Like-named read-outs stand apart in the source and are kept apart here.

Experiments:
[1] = test system: HIV Tat-regulated transactivation; experiment: cells; type: cell-based; conditions: for Inhibition (%) of HIV Tat-regulated Transactivation in COS Cells: average of three experiments; for pIC50: read-out: IC50, HIV Tat-regulated transactivation
Method: The COS cells were co-transfected with a Tat-producing plasmid and a plasmid containing the HIV LTR linked to the SeAP reporter gene. Transfected cells were treated with various concentrations of 5b P4N. After 48 h, aliquots of media were removed and analysis of SeAP activity was performed. The percent inhibition of SeAP activity by 5b P4N ? was calculated in comparison with the percent of growth inhibition of untransfected COS cells by P4N ?
The medium used for dilution of compounds and maintenance of cultures during the assay was the same as described above. Cultures were maintained in disposable tissue culture labware at 37° C. in a humidified atmosphere of CO2 (5.0%) in air. Compounds were dissolved as stock solutions in water or dimethyl sulfoxide (DMSO) at the concentration of 10 mM. The stock solutions were diluted with H2O (5a-d) or DMSO (6a,b and 7) and dilute by medium to the desired concentration by a 30-s vortex just before addition into the cell culture. Triplicate cell samples were seeded at density of ˜1.5×10^4 cell per well in Libro 24-well flat-bottom culture dishes (17-mm diameter), which were incubated for 24 h until they reached 50% confluence. The cells were cotransfected by the calcium phosphate procedure with DNA from plasmids pBC12/CMV/t2 (coding for Tat function, 0.20 μg/well) and pBC12/HIV/SeAP (0.40 μg/well). Cells and DNAs were kept in contact for 6.0 h; then the medium was aspirated and replaced by 500 μL of medium containing the test compound. The compound-treated cells were then incubated for additional 48 h. At the end of incubation, an aliquot of cell culture medium was removed and SeAP activities were analyzed by spectrametric method.^20 The sample of culture medium were heated at 65° C. for 5.0 min to inactivate endogenous phosphatases selectively (SeAP is thermal stable). The buffer solution of 2×SeAP (100 μL, 1.0 M diethanolamine, pH 9.8; 0.50 mM MgCl2; 10 mM L-homoarginine) was added to the culture medium sample (100 μL) in a 96-well flat-bottom culture dish (Corning). Then, the substrate solution ([…], 120 mM, p-nitrophenyl phosphate dissolved in 1×SeAP buffer) was dispensed into each well containing the reaction mixture. The absorbance at wavelength 405 nm specific for the hydrolysis product was read at 2.5 min intervals at 37° C. over the course of 60 min on an EL340i microplate reader (Bio-tek Instruments) with 5 s automatic shaking before each reading.
Two plasmid constructs^19 were used to test the effect of synthesized NDGA derivatives on Tat-regulated HIV transactivation as described previously.^12,13,19 The plasmid constructs included a cytomegalovirus (CMV) promoter driven tat gene and SP1 regulated HIV LTR promoter driven reporter gene (i.e., SeAP). A standard SeAP assay in the absence of drug was initially run to find out efficiency of transfection.

[2] = test system: HIV Tat-regulated transactivation; conditions: values from references 9 and 12; read-out: IC50, Tat-regulated SeAP production (reference compounds); cited from earlier work
[3] = Stability in aqueous solution (time dependent UV spectra); type: physicochemical
Method: FIG. 1: Stability of Two NDGA Derivatives G4N and P4N(HCl salts) in Aqueous Solution. Time Dependent Changes in UV spectra showing (a) G4N is unstable and (b) meso-2,3-dimethyl-1,4-bis(3,4-[2-piperidino)ethoxyphenyl])butane (P4N) (compound 5b in Scheme 1) (day 1, 2, 8, 13, 28) is stable in Milli-Q water after 28 days at 20° C.
The new NDGA derivatives (Scheme 1) were found stable in aqueous solution; >99% of these compounds remained intact after 28 days (see FIG. 1(b)). In a sharp contrast, >96% G4N (4) decomposed in aqueous solution within 24 h (see FIG. 1(a)).

[4] = COS cells, SeAP, mean of triplicate determinations
[5] = Human immunodeficiency virus 1, COS, read-out: Inhibition (%) of HIV Tat-regulated Transactivation in COS Cells

| Structure (SMILES) | Inhibition (%) of HIV Tat-regulated Transactivation in COS Cells ([1]; 0.10 μM) [%] | Inhibition (%) of HIV Tat-regulated Transactivation in COS Cells ([1]; 0.25 μM) [%] | Inhibition (%) of HIV Tat-regulated Transactivation in COS Cells ([1]; 0.50 μM) [%] | Inhibition (%) of HIV Tat-regulated Transactivation in COS Cells ([1]; 1.0 μM) [%] | Inhibition (%) of HIV Tat-regulated Transactivation in COS Cells ([1]; 2.5 μM) [%] | Inhibition (%) of HIV Tat-regulated Transactivation in COS Cells ([1]; 5.0 μM) | Inhibition (%) of HIV Tat-regulated Transactivation in COS Cells ([1]; 10 μM) | Inhibition (%) of HIV Tat-regulated Transactivation in COS Cells ([1]; 20 μM) [%] | Inhibition (%) of HIV Tat-regulated Transactivation in COS Cells ([1]; 40 μM) [%] | Inhibition (%) of HIV Tat-regulated Transactivation in COS Cells ([1]; 80 μM) [%] | Inhibition (%) of HIV Tat-regulated Transactivation in COS Cells ([1]; 100 μM) [%] | pIC50 [1, 4] | pIC50 [2] | other results |
| --- | --- | --- | --- | --- | --- | --- | --- | --- | --- | --- | --- | --- | --- | --- |
| C[C@H](Cc1ccc(OC(=O)N2CCCCC2)c(OC(=O)N2CCCCC2)c1)[C@@H](C)Cc1ccc(OC(=O)N2CCCCC2)c(OC(=O)N2CCCCC2)c1 [Compound 6a, meso-2,3-Dimethyl-1,4-bis[3,4-(phenylpiperidine-1-carboxylate)]butane] | 0 | 3.5 | 5.8 | 11.7 | 46.2 | 78.6% | 84.0% | 86.1 | 83.8 | 90.1 | 89.8 | 5.55 | – | – |
| C[C@H](Cc1ccc(O)c(O)c1)[C@@H](C)Cc1ccc(O)c(O)c1 [NDGA, Nordihydroguaiaretic acid] | – | – | – | – | – | – | – | – | – | – | – | – | 4.70 | – |
| COc1ccc(C[C@@H](C)[C@@H](C)Cc2ccc(OC)c(OC)c2)cc1OC [Compound M4N, (tetra-O-methyl)nordihydroguaiaretic acid] | – | – | – | – | – | – | – | – | – | – | – | – | 4.95 | – |
| COC(=O)Oc1ccc(C[C@@H](C)[C@@H](C)Cc2ccc(OC(=O)OC)c(OC(=O)OC)c2)cc1OC(=O)OC [Compound 6b, meso-2,3-Dimethyl-1,4-bis[3,4-(methylphenyl carbonate)]butane] | 9.8 | 12.3 | 16.0 | 13.1 | 15.1 | 38,0% | 51,6% | 58.4 | 70.8 | 93.4 | 88.9 | 5.03 | – | – |
| C[C@H](Cc1ccc(OCCN2CCCC2)c(OCCN2CCCC2)c1)[C@@H](C)Cc1ccc(OCCN2CCCC2)c(OCCN2CCCC2)c1.Cl.Cl.Cl.Cl [Compound 5a, meso-2,3-Dimethyl-1,4-bis(3,4-[2-(pyrrolidino)ethoxyphenyl])butane Tetrakishydrochloride Salt] | 18.1 | 15.4 | 27.2 | 19.6 | 31.0 | 14.1% | 26.3% | 59.1 | 94.8 | 97.1 | 100 | 4.76 | – | – |
| C[C@H](Cc1ccc(OCCCN2CCOCC2)c(OCCCN2CCOCC2)c1)[C@@H](C)Cc1ccc(OCCCN2CCOCC2)c(OCCCN2CCOCC2)c1.Cl.Cl.Cl.Cl [Compound 5d, meso-2,3-Dimethyl-1,4-bis(3,4-[3-(morpholino)propoxyphenyl])butane Tetrakishydrochloride Salt] | 15.0 | 15.9 | 10.6 | 9.5 | 52.7 | 89.5% | 96.0% | 99.9 | 99.8 | 100 | 89.5 | 5.62 | – | – |
| C[C@H](Cc1ccc2oc(=O)oc2c1)[C@@H](C)Cc1ccc2oc(=O)oc2c1 [Compound 7, meso-2,3-Dimethyl-1,4-bis(benzo[d][1,3]-dioxol-2-one)butane] | – | – | – | – | – | – | – | – | – | – | – | – | – | melting point: 172.6 to 173.4 °C; pIC50 ([1]; Human immunodeficiency virus 1, COS): 5.07; inhibition at 0.1 µM [1, 5]: 7.5%; inhibition at 0.25 µM [1, 5]: 18.1%; inhibition at 0.5 µM [1, 5]: 4.2%; inhibition at 1 µM [1, 5]: 5.9%; inhibition at 2.5 µM [1, 5]: 23.7%; inhibition at 5 µM [1, 5]: 47.1%; inhibition at 10 µM [1, 5]: 51.2%; inhibition at 20 µM [1, 5]: 68.8%; inhibition at 40 µM [1, 5]: 85.7%; inhibition at 80 µM [1, 5]: 96.3%; inhibition at 100 µM [1, 5]: 91.6% |
| COc1cc(C[C@H](C)[C@H](C)Cc2ccc(O)c(O)c2)ccc1O [Mal.4] | – | – | – | – | – | – | – | – | – | – | – | – | 4.60 | – |
| C[C@H](Cc1ccc(OC(=O)CN(C)C)c(OC(=O)CN(C)C)c1)[C@@H](C)Cc1ccc(OC(=O)CN(C)C)c(OC(=O)CN(C)C)c1 [Compound G4N, (tetra-O-dimethylglycyl)nordihydroguaiaretic acid] | – | – | – | – | – | – | – | – | – | – | – | – | – | Stability in Milli-Q water (UV spectra) ([3]; HCl salts, 28 days at 20° C., FIG. 1): unstable; Compound decomposed in aqueous solution ([3]; within 24 h): > 96% |
| C[C@H](Cc1ccc(OCCN2CCOCC2)c(OCCN2CCOCC2)c1)[C@@H](C)Cc1ccc(OCCN2CCOCC2)c(OCCN2CCOCC2)c1.Cl.Cl.Cl.Cl [Compound 5c, meso-2,3-Dimethyl-1,4-bis(3,4-[2-(morpholino)ethoxyphenyl])butane Tetrakishydrochloride Salt] | 5.0 | 16.5 | 9.9 | 8.1 | 4.6 | 13.3% | 25.4% | 58.9 | 86.0 | 96.8 | 100 | 4.76 | – | – |
